Assay results published in US20080004302A1, “Novel Compounds” (ASTRAZENECA AB, priority 2006, published 2008).
pIC50: −log10 of the molar value. Structures can show the parent of a compound that is named as a salt.

Key:
[1] = target: FGFR1 kinase (Homo sapiens, UniProt P11362); assay: Kinase assay (using Caliper technology); assay type: biochemical; settings: FGFR1 kinase, Caliper; upper bound of bin; read-out: IC50
Summary of the method: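 Human FGFR1 kinase activity measured with a 13-mer fluorescently tagged FGFR1-specific peptide substrate; compounds serially diluted in 5% (v/v) DMSO. Reactions ran 1.5 h at room temperature, stopped with EDTA-containing HEPES pH 7.5 buffer. Phosphorylated and unphosphorylated peptide separated by microfluidic mobility shift.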

[2] = target: T1, FGFR1 IIIc (Homo sapiens, UniProt P11362); assay: Cell based inhibition of transiently expressed FGFR1 IIIc phosphorylation (Cos-1 cells); settings: Cos-1 cells, phospho-FGFR1; upper bound of bin; read-out: IC50
T1 construct: host or cells: Cos-1
Method: This assay is designed to detect inhibitors of transiently expressed FGFR1 phosphorylation by antibody staining of fixed cells detected using ArrayScan technology.
To undertake the assay, Cos-1 cells were harvested at 90-95% confluence for cell transfection. For each 96-well plate, 24 ul Lipofectamine 2000 was added to 809 ul OptiMEM and incubated at room temperature for 5 minutes. […] Equal volumes of DNA and Lipofectamine 2000 were combined (DNA: Lipid=1:1.2 ratio) and incubated at room temperature for 20 minutes.
The harvested Cos-1 cells are counted using a coulter counter and diluted further with 1% FCS/DMEM to 2.5×10^5 cells/ml. For each 96-well, 8.33 ml cells were required. […] Media was removed from the wells using vacuum aspiration; cells were fixed by adding 50μl of 100% methanol to each well and incubated at room temperature for 20 minutes.
The plates were read on an Arrayscan (Cellomics).

[3] = target: T2, human IGF1R (Homo sapiens, UniProt P08069); assay: Inhibition of insulin-like growth factor-1 receptor phosphorylation in R+ cells; assay type: cell-based; settings: 30 nM IGF1, read-out: IGF cell class
T2 construct: expressed in transfected cells; host or cells: R+ cells (R- mouse fibroblasts transfected with human IGF1R)

[4] = test system: Erk phosphorylation; assay: Growth factor (bFGF) stimulated Erk phosphorylation in NIH 3T3 cells; settings: Mus musculus
Text: These and other assays were used to evaluate the ability of a test compound to inhibit growth factor stimulated cellular signalling in mammalian cell lines. This was achieved by measuring the amount of receptor tyrosine kinase regulated Erk phosphorylation within a cell following compound treatment.
NIH 3T3 (ECACC, 93061524) cells were routinely passaged in DMEM (Gibco BRL, 41966) plus 10% foetal calf serum (FCS), 1% L-glutamine (Gibco BRL, 25030) to a confluence not greater than 80%. To undertake the assay, NIH 3T3's were seeded at 1×10^4 cells/well in DMEM plus 10% foetal calf serum, 1% L-glutamine in 96 well plates (Costar, 3904) and incubated at 37° C. (+5% CO2) in a humidified incubator. Once the cells had fully adhered (typically following 4-5 hours incubation) the media was removed from each well and the cells gently washed with 100μl warm serum free media. 90μl of serum free DMEM plus 1% L-glutamine was then added to each well and the plates were returned to a humidified 37° C. (+5% CO2) incubator. The following day, the plates were dosed with 10[l compound (diluted from 10 mM stock in DMSO using serum free DMEM) and the plates were returned to a humidified 37° C. (+5% CO2) incubator for one hour. NIH 3T3 cells were then stimulated with a final concentration of 3 ng/ml bFGF (Sigma, F029 1) for 20 minutes at 37° C. Following stimulation the cells were fixed by adding formaldehyde (4% v/v final concentration) and incubating at room temperature for 20 minutes. The fixative solution was then removed and the wells were washed twice with 100μl phosphate buffered saline (PBS/A) before permeabilising the cells by the addition of 50 μl/well 0.1% triton/PBS/A for 10 minutes at room temperature. The permeabilisation solution was then removed and the cells washed twice more with 100 μl/well PBS/A before the addition of 50 μl/well anti-phospho p44/42 (Cell Signalling Technology, 9106), diluted 1/500 with PBS/A plus 10% FCS. The anti-phospho p44/42 antibody recognises Erk phosphorylated at threonine 202 and tyrosine 204. […] Finally, the plates were washed three times with 100 μl/well PBS/A, leaving the final wash in the wells before sealing the plates. The plates were read at 350 nm and 488 nm using an Arrayscan (Cellomics).

[5] = target: T1, FGFR1 IIIc; assay: Cell based inhibition of transiently expressed FGFR1 IIIc phosphorylation via use of ECHO technology (Cos-1 cells); settings: Cos-1 cells, phospho-FGFR1, ECHO dosing; upper bound of bin; read-out: IC50
[6] = NIH3T3, NIH 3T3 cells, 3 ng/ml bFGF, upper bound of bin

T1 sequence (P11362 22-822): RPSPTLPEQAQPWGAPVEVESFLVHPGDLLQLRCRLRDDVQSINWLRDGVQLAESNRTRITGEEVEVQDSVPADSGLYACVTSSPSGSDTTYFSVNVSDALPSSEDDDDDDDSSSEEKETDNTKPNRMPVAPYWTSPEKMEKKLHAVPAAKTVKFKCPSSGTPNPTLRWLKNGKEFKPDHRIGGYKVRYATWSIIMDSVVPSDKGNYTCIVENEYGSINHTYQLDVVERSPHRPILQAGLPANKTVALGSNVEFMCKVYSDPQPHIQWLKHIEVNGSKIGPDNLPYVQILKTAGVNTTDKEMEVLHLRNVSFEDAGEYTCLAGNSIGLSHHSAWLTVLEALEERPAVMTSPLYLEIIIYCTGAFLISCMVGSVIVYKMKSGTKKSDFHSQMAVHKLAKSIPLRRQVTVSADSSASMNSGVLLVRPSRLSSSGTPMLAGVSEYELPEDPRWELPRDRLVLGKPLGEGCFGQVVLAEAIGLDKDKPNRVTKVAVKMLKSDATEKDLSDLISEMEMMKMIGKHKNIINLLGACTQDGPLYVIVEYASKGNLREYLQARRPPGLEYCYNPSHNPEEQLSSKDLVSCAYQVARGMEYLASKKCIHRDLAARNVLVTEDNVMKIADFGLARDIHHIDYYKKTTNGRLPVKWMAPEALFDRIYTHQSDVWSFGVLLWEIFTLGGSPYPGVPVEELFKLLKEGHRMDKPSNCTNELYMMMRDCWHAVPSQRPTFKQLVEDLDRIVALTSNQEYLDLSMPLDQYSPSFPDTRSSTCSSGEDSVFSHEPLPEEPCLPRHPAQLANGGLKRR
FGFR1 kinase, sequence (P11362 22-822): as above
T2 sequence (P08069 31-1367): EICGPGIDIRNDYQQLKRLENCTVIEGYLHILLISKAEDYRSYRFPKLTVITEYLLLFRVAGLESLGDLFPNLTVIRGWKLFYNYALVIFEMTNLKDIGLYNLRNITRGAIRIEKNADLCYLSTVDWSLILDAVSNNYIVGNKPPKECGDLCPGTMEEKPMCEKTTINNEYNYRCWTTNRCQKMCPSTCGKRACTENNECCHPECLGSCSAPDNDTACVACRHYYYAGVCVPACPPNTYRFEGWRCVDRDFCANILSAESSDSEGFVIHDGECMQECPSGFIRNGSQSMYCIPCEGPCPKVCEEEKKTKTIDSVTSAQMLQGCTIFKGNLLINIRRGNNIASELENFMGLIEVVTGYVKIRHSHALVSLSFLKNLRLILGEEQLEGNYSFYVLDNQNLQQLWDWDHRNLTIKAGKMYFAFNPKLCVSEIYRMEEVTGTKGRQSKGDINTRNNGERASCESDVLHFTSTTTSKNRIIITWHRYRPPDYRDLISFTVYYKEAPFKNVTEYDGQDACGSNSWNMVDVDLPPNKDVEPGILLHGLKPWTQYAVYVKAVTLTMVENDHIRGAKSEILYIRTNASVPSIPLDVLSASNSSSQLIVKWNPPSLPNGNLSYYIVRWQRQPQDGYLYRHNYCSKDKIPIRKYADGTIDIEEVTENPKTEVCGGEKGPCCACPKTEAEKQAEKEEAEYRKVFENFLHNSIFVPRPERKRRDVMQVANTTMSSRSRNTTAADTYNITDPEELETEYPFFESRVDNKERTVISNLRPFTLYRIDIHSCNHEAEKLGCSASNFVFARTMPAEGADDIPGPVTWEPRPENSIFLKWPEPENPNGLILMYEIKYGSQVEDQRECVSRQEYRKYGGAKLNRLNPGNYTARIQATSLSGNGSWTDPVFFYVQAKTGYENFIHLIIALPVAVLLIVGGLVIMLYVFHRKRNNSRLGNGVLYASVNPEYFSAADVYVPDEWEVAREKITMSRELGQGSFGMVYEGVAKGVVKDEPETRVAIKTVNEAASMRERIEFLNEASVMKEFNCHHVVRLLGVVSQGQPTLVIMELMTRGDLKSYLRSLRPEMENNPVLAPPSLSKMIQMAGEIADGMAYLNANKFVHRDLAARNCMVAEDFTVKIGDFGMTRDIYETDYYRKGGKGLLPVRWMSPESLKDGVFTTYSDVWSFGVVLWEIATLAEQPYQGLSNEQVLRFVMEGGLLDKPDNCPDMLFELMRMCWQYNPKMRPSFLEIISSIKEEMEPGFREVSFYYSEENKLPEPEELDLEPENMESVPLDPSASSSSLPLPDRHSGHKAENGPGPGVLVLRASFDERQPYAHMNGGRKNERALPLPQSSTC

SMILES	pIC50 [1]	pIC50 [2]	pIC50 [3]	pIC50 [5]	pIC50 ([4]; NIH3T3, NIH 3T3 cells, 3 ng/ml bFGF)	pIC50 [4, 6]	pIC50 ([4]; NIH3T3)
c1ccc(COc2cc(Nc3ccnc(NCc4cc(C5CC5)no4)n3)n[nH]2)cc1 [Example 103, N-[(3-cyclopropyl-1,2-oxazol-5-yl)methyl]-N′-(5-phenylmethoxy-2H-pyrazol-3-yl)pyrimidine-2,4-diamine]	> 6.70	> 6.70	5.00 to 6.00	> 6.70	–	–	–
Cc1cc(CNc2nccc(Nc3cc(CCC4CCOC4)[nH]n3)n2)on1 (stereo not drawn) [Example 109, N-[(3-methyl1,2-oxazol-5-yl)methyl]-N′-[5-[2-(oxolan-3-yl)ethyl]-1H-pyrazol-3-yl]pyrimidine-2,4-diamine]	> 6.00	> 5.00	< 5.00	–	–	> 5.00	–
Cc1cc(CNc2nccc(Nc3cc(-c4ccco4)[nH]n3)n2)on1 [Example 105, N′-[5-(2-furyl)-1H-pyrazol-3-yl]-N-[(3-methyl1,2-oxazol-5-yl)methyl]pyrimidine-2,4-diamine]	> 6.00	> 5.00	< 5.00	–	–	> 6.00	–
COc1ccc(CCc2cc(Nc3ccnc(NCc4cc(C)no4)n3)n[nH]2)cc1OC [Example 46, N′-[5-[2-(3,4-dimethoxyphenyl)ethyl]-1H-pyrazol-3-yl]-N-[(3-methyl1,2-oxazol-5-yl)methyl]pyrimidine-2,4-diamine hydrochloride]	–	> 5.00	5.00 to 6.00	–	–	–	> 5.00
Cc1cc(CNc2nccc(Nc3cc(CCc4cc(O)cc(O)c4)[nH]n3)n2)on1 [Example 43, 5-[2-[5-[[2-[(3-methyl1,2-oxazol-5-yl)methylamino]pyrimidin-4-yl]amino]-1H-pyrazol-3-yl]ethyl]benzene-1,3-diol]	> 6.70	> 5.00	< 5.00	–	–	> 6.00	–
Cc1cc(CNc2nccc(Nc3cc(CCc4cccc(CN)c4)[nH]n3)n2)on1 [Example 58, N′-[5-[2-[3-(aminomethyl)phenyl]ethyl]-1H-pyrazol-3-yl]-N-[(3-methyl-1,2-oxazol-5-yl)methyl]pyrimidine-2,4-diamine]	> 6.00	> 4.52	–	> 4.52	–	–	–
Cc1cc(CNc2nccc(Nc3cc(CCc4cc(F)cc(Cl)c4)[nH]n3)n2)on1 [Example 57, N′-[5-[2-(3-chloro-5-fluoro-phenyl)ethyl]-2H-pyrazol-3-yl]-N-[(3-methyl-1,2-oxazol-5-yl)methyl]pyrimidine-2,4-diamine]	> 6.00	> 6.70	–	> 6.00	–	–	–
CC(C)Cc1cc(Nc2ccnc(NCc3cc(C4CC4)no3)n2)n[nH]1 [Example 16, N-[(3-cyclopropyl-1,2-oxazol-5-yl)methyl]-N′-[5-(2-methylpropyl)-2H-pyrazol-3-yl]pyrimidine-2,4-diamine]	> 6.70	> 6.00	–	> 6.70	–	–	–
Cc1cc(CNc2nccc(Nc3cc(CCc4cc(C)nn4C)[nH]n3)n2)on1 [Example 118, N′-[5-[2-(2,5-dimethylpyrazol-3-yl)ethyl]-1H-pyrazol-3-yl]-N-[(3-methyl-1,2-oxazol-5-yl)methyl]pyrimidine-2,4-diamine]	> 6.00	> 4.52	< 5.00	–	–	> 4.52	–
COc1cc(CCc2cc(Nc3ccnc(NCc4cc(C)no4)n3)n[nH]2)c(F)cn1 [Example 62, N′-[5-[2-(5-fluoro-2-methoxy-pyridin-4-yl)ethyl]-1H-pyrazol-3-yl]-N-[(3-methyl-1,2-oxazol-5-yl)methyl]pyrimidine-2,4-diamine hydrochloride]	> 6.00	> 6.00	< 5.00	> 6.00	–	–	–
Cc1cc(CNc2nccc(Nc3cc(OCc4ccoc4)[nH]n3)n2)on1 [Example 108, N′-[5-(3-furylmethoxy)-1H-pyrazol-3-yl]-N-[(3-methyl1,2-oxazol-5-yl)methyl]pyrimidine-2,4-diamine]	> 6.70	> 5.00	–	–	–	> 6.00	–
CC(C)Oc1cc(Nc2ccnc(NCc3cc(C4CCC4)no3)n2)n[nH]1 [Example 102, N-[(3-cyclobutyl-1,2-oxazol-5-yl)methyl]-N′-(5-propan-2-yloxy-1H-pyrazol-3-yl)pyrimidine-2,4-diamine]	> 6.70	> 6.70	6.00 to 7.00	> 6.70	–	–	–
c1cc(Nc2cc(C3CCCC3)[nH]n2)nc(NCc2cc(C3CC3)no2)n1 [Example 14, N′-(5-cyclopentyl-2H-pyrazol-3-yl)-N-[(3-cyclopropyl-1,2-oxazol-5-yl)methyl]pyrimidine-2,4-diamine]	> 6.70	> 6.70	–	> 6.70	–	–	–
Oc1cccc(CCc2cc(Nc3ccnc(NCc4cc(C5CC5)no4)n3)n[nH]2)c1 [Example 56, 3-[2-[5-[[2-[(3-cyclopropyl-1,2-oxazol-5-yl)methylamino]pyrimidin-4-yl]amino]-1H-pyrazol-3-yl]ethyl]phenol]	> 6.70	> 6.70	5.00 to 6.00	> 6.70	–	–	–
CN(C)Cc1cc(CNc2nccc(Nc3cc(CCc4cccc(O)c4)n[nH]3)n2)on1 [Example 63, 3-[2-[5-[[2-[[3-(dimethylaminomethyl)-1,2-oxazol-5-yl]methylamino]pyrimidin-4-yl]amino]-1H-pyrazol-3-yl]ethyl]phenol]	> 6.70	> 5.00	–	> 5.00	–	–	–

Continued, in another order:

pIC50 [1]	pIC50 [2]	pIC50 [3]	pIC50 [5]	SMILES	pIC50 ([4]; NIH3T3, NIH 3T3 cells, 3 ng/ml bFGF)	pIC50 [4, 6]	pIC50 ([4]; NIH3T3)
> 6.00	> 6.00	< 5.00	–	Cc1cc(CNc2nccc(Nc3cc(CCc4cccc(Br)c4)[nH]n3)n2)on1 [Example 53, N′-[5-[2-(3-bromophenyl)ethyl]-1H-pyrazol-3-yl]-N-[(3-methyl1,2-oxazol-5-yl)methyl]pyrimidine-2,4-diamine hydrochloride]	> 6.70	> 6.00	–
> 5.00	> 5.00	< 5.00	–	Cc1cc(CNc2nccc(Nc3cc(COc4ccccc4)[nH]n3)n2)on1 [Example 34, N-[(3-methyl-1,2-oxazol-5-yl)methyl]-N′-[5-(phenoxymethyl)-2H-pyrazol-3-yl]pyrimidine-2,4-diamine]	–	> 5.00	–
> 6.00	> 5.00	< 5.00	–	Cc1cc(CNc2nccc(Nc3cc(CCc4cccc(C#N)c4)[nH]n3)n2)on1 [Example 48, 3-[2-[5-[[2-[(3-methyl-1,2-oxazol-5-yl)methylamino]pyrimidin-4-yl]amino]-2H-pyrazol-3-yl]ethyl]benzonitrile]	–	> 5.00	–
> 6.00	> 5.00	–	> 5.00	CNC(=O)c1cc(CNc2nccc(Nc3cc(CCc4cccc(OC)c4)n[nH]3)n2)on1 [Example 64, 5-[[[4-[[5-[2-(3-methoxyphenyl)ethyl]-2H-pyrazol-3-yl]amino]pyrimidin-2-yl]amino]methyl]-N-methyl-1,2-oxazole-3-carboxamide]	–	–	–
> 6.70	> 5.00	–	–	CC(C)Oc1cc(Nc2ccnc(NCc3cc(C(N)=O)no3)n2)[nH]n1 [Example 78, 5-[[[4-[(5-propan-2-yloxy-2H-pyrazol-3-yl)amino]pyrimidin-2-yl]amino]methyl]-1,2-oxazole-3-carboxamide]	–	> 6.00	–
> 6.00	> 5.00	< 5.00	–	COc1ccccc1CCc1cc(Nc2ccnc(NCc3cc(C)no3)n2)n[nH]1 [Example 31, N′-[5-[2-(2-methoxyphenyl)ethyl]-1H-pyrazol-3-yl]-N-[(3-methyl1,2-oxazol-5-yl)methyl]pyrimidine-2,4-diamine hydrochloride]	–	> 5.00	–
> 6.70	> 5.00	5.00 to 6.00	> 5.00	CNC(=O)c1cc(CNc2nccc(Nc3cc(CCc4cccc(O)c4)n[nH]3)n2)on1 [Example 65, 5-[[[4-[[5-[2-(3-hydroxyphenyl)ethyl]-2H-pyrazol-3-yl]amino]pyrimidin-2-yl]amino]methyl]-N-methyl-1,2-oxazole-3-carboxamide]	–	–	–
> 6.70	> 6.00	5.00 to 6.00	> 6.70	c1coc(-c2cc(Nc3ccnc(NCc4cc(C5CC5)no4)n3)n[nH]2)c1 [Example 120, N-[(3-cyclopropyl-1,2-oxazol-5-yl)methyl]-N′-[5-(2-furyl)-2H-pyrazol-3-yl]pyrimidine-2,4-diamine]	–	–	–
> 6.00	> 4.52	–	> 4.52	Cc1cc(CNc2nccc(Nc3cc(CCc4cccc(C(=O)N(C)C)c4)[nH]n3)n2)on1 [Example 59, N,N-dimethyl-3-[2-[5-[[2-[(3-methyl-1,2-oxazol-5-yl)methylamino]pyrimidin-4-yl]amino]-2H-pyrazol-3-yl]ethyl]benzamide]	–	–	–
